≈ marks a conversion by molar mass, not a printed value.
Key:
human erythrocytes [1] = test: Hemolytic activity (MHC), Protocol B, 18 hours; settings: maximal peptide concentration showing no hemolysis after 18 hours, hRBC, Table 14
Description: In order to evaluate the biological activities of the D-enantiomeric peptides, namely D-NAL and D-NKD, the hemolytic activity of the peptides against human erythrocytes was determined as the maximal peptide concentration that produces no hemolysis after 18 hours of incubation at 37° C.
(§1) Measurement of Hemolytic Activity—Protocol A: Peptide samples were added to 1% human erythrocytes in phosphate buffered saline (0.08M NaCl; 0.043M Na2PO4; 0.011M KH2PO4) and reactions were incubated at 37° C. for 12 hours in microtiter plates. Peptide samples were diluted 2 fold in order to determine the concentration that produced no hemolysis. […] Hemoglobin release was determined spectrophotometrically at 562 nm. The hemolytic titer was the highest 2-fold dilution of the peptide that still caused release of hemoglobin from erythrocytes. The control for no release of hemoglobin was a sample of 1% erythrocytes without any peptide added. […] Peptide samples were diluted 2 fold in order to determine the concentration that produced no hemolysis. […] Hemoglobin release was determined spectrophotometrically at 570 nm. The hemolytic titer was the highest 2-fold dilution of the peptide that still caused release of hemoglobin from erythrocytes. The control for no release of hemoglobin was a sample of 1% erythrocytes without any peptide added.

[2] = system: Pseudomonas aeruginosa strains; settings: for MIC (μg/ml) CP 204: Pseudomonas aeruginosa clinical isolate CP 204; for MIC (μg/ml) M 2: Pseudomonas aeruginosa clinical isolate M 2; for MIC (μg/ml) PA 14: Pseudomonas aeruginosa clinical isolate PA 14; for MIC (μg/ml) PAK: Pseudomonas aeruginosa clinical isolate PAK; for MIC (μg/ml) PAO 1: Pseudomonas aeruginosa clinical isolate PAO 1; for MIC (μg/ml) WR 5: Pseudomonas aeruginosa clinical isolate WR 5; for MIC (μg/ml) GM: geometric mean of the MIC values for the 6 Pseudomonas aeruginosa clinical isolates
Description: Pseudomonas aeruginosa strains used in this study are a diverse group of clinical isolates from different places in the world. […] The geometric mean MIC values from six Pseudomonas aeruginosa strains were calculated to provide an overall evaluation of antimicrobial activity of these peptides against Pseudomonas aeruginosa. Fold improvement was calculated by comparing the geometric mean MIC value of each peptide to that of the parent peptide V681.
Measurement of Antimicrobial Activity—Minimal inhibitory concentrations (MICs) were determined using a standard microtiter dilution method in LB (Luria-Bertani) no-salt medium (10 g of tryptone and 5 g of yeast extract per liter). Briefly, cells were grown overnight at 37° C. in LB and diluted in the same medium. […] Plates were incubated at 37° C. for 24 hours and MICs determined as the lowest peptide concentration that inhibited growth. Alternatively, minimal inhibitory concentrations were determined using a standard microtiter dilution method in a Mueller-Hinton (MH) medium. Briefly, cells were grown overnight at 37° C. in MH broth and diluted in the same medium. […] Plates were incubated at 37° C. for 24 hours and MICs determined as the lowest peptide concentration that inhibited growth. However, for MIC determination of Pseudomonas aeruginosa clinical isolates, brain heart infusion (BH1) medium was used instead of MH broth. In addition, the bacteria were diluted to a final inoculum of 1×10^6 colony-forming units/ml.
For the Leu-substituted peptides, the hemolytic activity against human erythrocytes was determined as the maximal peptide concentration that produces no hemolysis after 18 hours of incubation at 37° C. Antimicrobial activity of the peptides was determined on a diverse group of Pseudomonas aeruginosa clinical isolates. […] The geometric mean MIC values from six Pseudomonas strains in Table 14 were calculated to provide an overall evaluation of antimicrobial activity of the peptides with different hydrophobicities.

[3] = RP-HPLC temperature profiling (hydrophobicity and self-association/dimerization parameter PA); type: physicochemical
Description: The retention time data for the peptides is shown in Table 5 which records retention times at 5° C., the maximal retention times and retention times at 80° C. during the temperature profiling. Temperatures of 5° C. and 80° C. were the lower and upper temperature limits of temperature profiling in RP-HPLC, representing dimerization of the peptides at 5° C. and the monomerization of peptides at 80° C. due to dissociation of the dimers. The maximal retention times represent the threshold points at which peptides transform from dimeric to monomeric form. Among the non-polar face substituted peptides, peptides with more hydrophobic substitutions (whether L- or D-amino acid substitutions) were more retained during RP-HPLC, i.e., peptides were eluted in the order of Lys, Gly, Ser, Ala, Val and Leu (Table 5). In addition, on the non-polar face, the L-analogs were always more retained than the D-diastereomers (Table 5, FIG. 5). […] In contrast, on the polar face, the elution order of peptides was not correlated with the order of amino acid side-chain hydrophobicity, e.g., PAL and PSL were more retained than PVL (Table 5); PSD was the most retained peptide among the D-amino acid substituted analogs on the polar face (Table 5).
The ability of the D-peptides to self-associate was determined by RP-HPLC temperature profiling. […] As expected, L- and D-peptide enantiomers were totally inseparable over this temperature range, since each pair of peptides is identical in sequence and must adopt identical conformations on interacting with the reversed-phase matrix, whether in an all-L- or all-D-conformation. RP-HPLC retention behavior has been frequently utilized to represent overall peptide hydrophobicity (53, 26). In the present study, the hydrophobicity of the three peptide pairs is in the order V681/D-V681>[…]>NKL/D-NKD (Table 4), which agrees with the change in hydrophobicity of the substitutions at position 13 in order of the most hydrophobic to the least hydrophobic amino acid residue (Val in V681>Ala in NA>Lys in NK) (54). […] For example, the retention times of peptides V681/D-V681 increase with increasing temperature (up to ˜30° C.) followed by a retention time decrease with a further temperature increase. […] Since peptide C is a monomeric random coil peptide in both aqueous and hydrophobic media, its retention behavior over the temperature range 5° C. to 80° C. represents only general temperature effects on peptide retention behavior, i.e., a linear decrease in peptide retention time with increasing temperature due to greater solute diffusivity and enhanced mass transfer between the stationary and mobile phases at higher temperatures (55). Thus, after normalization to the retention times of peptide C, the retention behavior of the peptides represents only peptide self-association ability. Note that the higher the PA value, the greater the self-association ability. […] From Table 4, it is also clear that the peptide retention times at 80° C. are dramatically lower than those at 5° C.
Elution times during RP-HPLC have frequently been utilized as a measure of relative hydrophobicity of peptide analogs (26, 31). In the current study, peptide analogs differed only by a single amino acid substitution on either the non-polar face or the polar face of V681; thus, the retention time data in Table 5 can be considered to reflect the hydrophobicity difference between peptide analogs. In order to more easily visualize the variation in hydrophobicity of the peptide analogs, the retention time data in Table 5 were normalized relative to that of the native peptide V681 at 5° C. and 80° C., respectively. Hydrophobicity relative to the native peptide V681 indicates an increase or decrease of the apparent peptide hydrophobicity with the different amino acid substitutions on the polar or non-polar face. […]

[4] = Circular dichroism spectroscopy of helical structure (benign buffer and 50% TFE); type: physicochemical; settings: 25° C.
Description: To determine the secondary structure of peptides in different environments, circular dichroism (CD) spectra of the peptide analogs were measured under physiologically related pH and ionic strength (100 mM KCl, 50 mM aq. PO4, pH 7 referred to as benign conditions) and also in 50% TFE to mimic the hydrophobic environment of the membrane. […] On the non-polar face, the native L-Val residue was critical in maintaining α-helical structure. […] Even the substitution with L-Ala, which is known to have the highest α-helical propensity of all 20 amino acids (34), could not stabilize the α-helical structure. […] It is noteworthy that, on the non-polar face, the magnitude of the helical content of L-peptides in benign buffer was related to the hydrophobicity of the substituting amino acids, i.e., NLL>NVL>NAL>NSL, NKL, again showing the importance of hydrophobicity on the non-polar face in maintaining the α-helical structure. […] However, whether L- or D-substitutions were made on the non-polar face, high helical structure could be induced by the hydrophobic environment of 50% TFE, a mimic of the membrane's hydrophobicity and α-helix inducing ability (Table 3).
To determine the secondary structure of the D-enantiomeric peptides in different environments, CD spectra of the peptide analogs were measured under benign conditions (100 mM KCl, 50 mM KH2PO4/K2HPO4, pH 7.4, referred to as KP buffer) and also in 50% trifluoroethanol (TFE) to mimic the hydrophobic environment of the membrane. […] However, in the presence of 50% TFE, all three L-peptides were fully folded α-helical structures with similar ellipticities and helicity (Table 4).
Characterization of Helical Structure—The mean residue molar ellipticities of peptides were determined by circular dichroism (CD) spectroscopy, using a Jasco J-720 spectropolarimeter (Jasco, Easton, Md.), at 25° C. under benign conditions (50 mM KH2PO4/K2HPO4/100 mM KCl, pH 7), as well as in the presence of an α-helix inducing solvent, 2,2,2-trifluoroethanol (TFE) (50 mM KH2PO4/K2HPO4/100 mM KCl, pH 7 buffer/50% TFE). A 10-fold dilution of a ˜500 μM stock solution of the peptide analogs was loaded into a 0.02 cm fused silica cell and its ellipticity scanned from 190 to 250 nm. The values of molar ellipticities of the peptide analogs at a wavelength of 222 nm were used to estimate the relative α-helicity of the peptides.

human erythrocytes [5] = test: Hemolytic activity (MHC), Protocol A, 12 hours; settings: incubation for 12 hours at 37° C. (Tables 7 and 8)
Description: as §1

| Molecule | Hemolytic activity MHC (human erythrocytes [1]) | MIC (μg/ml) CP 204 [2] | MIC (μg/ml) M 2 [2] | MIC (μg/ml) PA 14 [2] | MIC (μg/ml) PAK [2] | MIC (μg/ml) PAO 1 [2] | MIC (μg/ml) WR 5 [2] | MIC (μg/ml) GM [2] | tR (min) 5° C. ([3]; RP-HPLC retention time at 5° C. during temperature profiling (measure of hydrophobicity)) | tR (min) 80° C. ([3]; RP-HPLC retention time at 80° C. during temperature profiling) | tR (min) Max ([3]; maximal RP-HPLC retention time during temperature profiling 5-80° C.) | PA (min) association parameter ([3]; maximal retention time difference relative to control peptide C within 5-80° C.) | ΔtR (X-PSL) (min) 5° C. ([3]; polar face substitutions, retention time difference relative to native peptide V681 (PSL) at 5° C., relative hydrophobicity) | ΔtR (X-PSL) (min) 80° C. ([3]; polar face substitutions, retention time difference relative to native peptide V681 (PSL) at 80° C., relative hydrophobicity) | % helix 50% TFE ([4]; 50% TFE, relative to NAL in 50% TFE) | [θ]222 Benign ([4]; benign buffer (100 mM KCl, 50 mM PO4 pH 7.0)) | [θ]222 50% TFE ([4]; benign buffer diluted 1:1 (v/v) with TFE) | % helix Benign ([4]; benign buffer, relative to NAL in 50% TFE) | minimal hemolytic concentration (MHC) (human erythrocytes [5]) |
| --- | --- | --- | --- | --- | --- | --- | --- | --- | --- | --- | --- | --- | --- | --- | --- | --- | --- | --- | --- |
| CC[C@H](C)[C@H](NC(=O)[C@H](C)NC(=O)[C@H](CCCCN)NC(=O)[C@H](CC(C)C)NC(=O)[C@H](C)NC(=O)[C@@H](NC(=O)[C@H](Cc1c[nH]cn1)NC(=O)[C@H](CC(C)C)NC(=O)[C@@H](NC(=O)[C@@H](NC(=O)[C@H](CCCCN)NC(=O)[C@H](CCCCN)NC(=O)[C@H](CC(C)C)NC(=O)[C@H](CO)NC(=O)[C@H](CCCCN)NC(=O)[C@H](Cc1ccccc1)NC(=O)[C@@H](NC(=O)[C@H](CCCCN)NC(=O)[C@H](CC(C)C)NC(=O)[C@H](Cc1ccccc1)NC(=O)[C@H](CO)NC(=O)[C@H](CCCCN)NC(=O)[C@H](Cc1c[nH]c2ccccc12)NC(=O)[C@H](CCCCN)NC(C)=O)[C@@H](C)O)[C@@H](C)O)C(C)C)[C@@H](C)O)C(=O)N[C@@H](CO)C(=O)N[C@@H](CO)C(N)=O [Peptide A12L] | 31.3 µg/mL | 15.6 µg/mL (≈ 5.14 µM) | 15.6 µg/mL (≈ 5.14 µM) | 31.3 µg/mL (≈ 10.3 µM) | 31.3 µg/mL (≈ 10.3 µM) | 15.6 µg/mL (≈ 5.14 µM) | 62.5 µg/mL (≈ 20.6 µM) | 24.8 µg/mL (≈ 8.18 µM) |  |  |  |  |  |  |  |  |  |  |  |
| Ac-KWKSFLKTFKSAKKTVLHTALKLISS-NH2 [Peptide A23L] | 62.5 µg/mL | 15.6 µg/mL | 31.3 µg/mL | 31.3 µg/mL | 62.5 µg/mL | 31.3 µg/mL | 62.5 µg/mL | 35.1 µg/mL |  |  |  |  |  |  |  |  |  |  |  |
| Ac-KWKSFLKTFKVAVKTVLHTALKAISS-NH2 [PVL] |  |  |  |  |  |  |  |  | 47.83 min | 46.18 min | 49.93 min | 3.91 min | -0.27 min | 0.35 min | 80% | −7,550 deg · cm^2 · dmol^−1 | −23,050 deg · cm^2 · dmol^−1 | 26% | 7.8 µg/mL |
